Results: paper PMC9837035 (Nature Communications, 2023)
Several values for one entry are separate records, joined by “and”; a condition that tells them apart may be missing. Equal values may be shown once. Read-outs that look alike come from different tables or passages of the source.

Columns and labels:
CD34+ cells = assay: Cell viability of CD34+ cells by cell counting; format: cell-based, human; conditions: for cell viability: CD34+ cells, 10 days
Protocol: HUDEP-2 cells and HiDEP-1 cells were grown in Stemline II Hematopoietic Stem Cell Expansion Medium (Sigma) supplemented with 50 ng/mL recombinant stem cell factor (SCF; R&D systems), 3 IU/mL recombinant erythropoietin (EPO; Kyowa Kirin), 1 μM dexamethasone (Dex; Sigma), and 1 μg/mL doxycycline (Sigma). A total of 1 × 10^5 human CD34^+ progenitor cells derived from bone marrow or peripheral blood (Lonza) were cultured on 35-mm dishes (BD Falcon) in StemSpan SFEMII medium with 50 ng/mL SCF, 5 IU/mL EPO, and 10 ng /mL interleukin 3 (IL-3; R&D systems). The medium was changed on day 4 to SCF, EPO, and 1 μM Dex, and the cells were transferred to 60-mm dishes (BD Falcon). Seven days after the onset of differentiation, cells were counted and 1 × 10^6 cells were re-plated on 100-mm dishes (BD Falcon) with SCF, EPO, and Dex. The rat myoblast cell line H9c2, HEK293T, and PLAT-E cells were maintained in Dulbecco’s modified Eagle’s medium (Thermo Fisher Scientific) supplemented with 10% heat-inactivated fetal bovine serum (FBS) and penicillin/streptomycin. All cells were cultured at 37 °C under 5% CO2.

PRMT5/MEP50 = PRMT5/MEP50 (Homo sapiens, UniProt O14744); assay: Radioisotope-based methyltransferase assay (selectivity)
MLL4 [1] = target: MLL4
DNMT1 = DNMT1 (Homo sapiens, UniProt P26358); assay: Radioisotope-based methyltransferase assay (selectivity); conditions: IC50, DNMT1, 1 μM SAM
NSD2 = NSD2 (Homo sapiens, UniProt O96028)
mice = assay: Mouse acute toxicity assay, survival; format: in vivo; conditions: intravenous; for Number of alive mice: 2-week observation
Method in brief: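 Four-week-old female ICR mice received compounds intravenously in saline with 10% DMSO and 1% Tween 80; body weight and survival monitored.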

MLL4 [2] = assay: Radioisotope-based methyltransferase assay (selectivity); conditions: MLL4, 1 μM SAM
[3] = Liver microsomal stability assay, dog; format: in vitro ADME; conditions: for Metabolic stability, % remaining of RK-701: Dog
Protocol: [Human/Rat] Liver microsome analyses (human, rat) were performed in triplicate by the Sumika Chemical Analysis Service (SCAS) according to the standard protocols. […] [Dog/Monkey] Liver microsome analyses (dog, monkey) were performed in duplicate by RIKEN according to the same protocols as SCAS.

HUDEP-2 cells = assay: RNA-seq analysis of HUDEP-2 cells; format: cell-based, human
Protocol: Total RNAs were extracted using an RNeasy Plus Mini Kit (QIAGEN). RNA-seq experiments were performed by GENEWIZ or Rhelixa. Gene Ontology (GO) analysis in Supplementary Fig. 7a, the statistical test was performed by Wallenius in goseq software. In Supplementary Tables 8(1-3), the statistical test (adjp) was determined using multiple comparisons analysis, Benjamini-Hochberg adjusted FDR test of the default of AltAnalyze (Ver. 2.0).

SETD2 = target: T1, SETD2 (Homo sapiens, UniProt Q9BYW2); assay: Radioisotope-based methyltransferase assay (selectivity); format: biochemical
T1 construct: purchased Reaction Biology

MLL4 [4] = target: T2, MLL4 (Homo sapiens, UniProt Q9UMN6)
MLL4 [5] = target: T2, MLL4; assay: Radioisotope-based methyltransferase assay (selectivity); conditions: MLL4, 1 μM SAM
T2 sequence (Q9UMN6 2490-2715): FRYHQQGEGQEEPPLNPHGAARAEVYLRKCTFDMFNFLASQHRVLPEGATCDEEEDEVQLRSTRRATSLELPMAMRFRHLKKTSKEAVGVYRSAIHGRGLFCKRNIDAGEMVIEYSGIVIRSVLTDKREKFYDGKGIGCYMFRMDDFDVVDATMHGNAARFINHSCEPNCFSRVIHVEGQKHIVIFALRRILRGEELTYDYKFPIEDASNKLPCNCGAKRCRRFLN
T2 sequence (Q9UBL3 whole entry, further chain): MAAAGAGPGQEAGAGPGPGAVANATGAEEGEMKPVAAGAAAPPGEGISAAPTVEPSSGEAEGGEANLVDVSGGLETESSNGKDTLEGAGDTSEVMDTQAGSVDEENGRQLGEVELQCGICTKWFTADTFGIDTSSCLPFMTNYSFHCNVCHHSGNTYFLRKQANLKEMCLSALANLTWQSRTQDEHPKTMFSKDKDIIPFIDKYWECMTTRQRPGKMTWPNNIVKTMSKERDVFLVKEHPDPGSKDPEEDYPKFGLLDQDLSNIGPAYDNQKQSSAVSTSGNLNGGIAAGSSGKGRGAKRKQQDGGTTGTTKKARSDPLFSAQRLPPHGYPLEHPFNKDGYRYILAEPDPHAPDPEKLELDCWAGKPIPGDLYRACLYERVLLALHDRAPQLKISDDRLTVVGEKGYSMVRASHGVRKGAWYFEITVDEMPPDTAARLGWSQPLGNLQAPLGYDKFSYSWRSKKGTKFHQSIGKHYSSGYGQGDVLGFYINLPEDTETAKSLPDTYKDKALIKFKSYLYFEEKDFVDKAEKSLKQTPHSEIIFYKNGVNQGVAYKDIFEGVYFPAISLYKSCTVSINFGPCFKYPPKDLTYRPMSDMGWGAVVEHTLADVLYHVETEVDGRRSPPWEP
T2 sequence (Q9C005 whole entry, further chain): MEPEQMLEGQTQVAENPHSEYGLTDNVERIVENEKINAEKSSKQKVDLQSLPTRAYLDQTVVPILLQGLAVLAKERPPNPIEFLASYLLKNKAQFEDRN
T2 sequence (Q15291 whole entry, further chain): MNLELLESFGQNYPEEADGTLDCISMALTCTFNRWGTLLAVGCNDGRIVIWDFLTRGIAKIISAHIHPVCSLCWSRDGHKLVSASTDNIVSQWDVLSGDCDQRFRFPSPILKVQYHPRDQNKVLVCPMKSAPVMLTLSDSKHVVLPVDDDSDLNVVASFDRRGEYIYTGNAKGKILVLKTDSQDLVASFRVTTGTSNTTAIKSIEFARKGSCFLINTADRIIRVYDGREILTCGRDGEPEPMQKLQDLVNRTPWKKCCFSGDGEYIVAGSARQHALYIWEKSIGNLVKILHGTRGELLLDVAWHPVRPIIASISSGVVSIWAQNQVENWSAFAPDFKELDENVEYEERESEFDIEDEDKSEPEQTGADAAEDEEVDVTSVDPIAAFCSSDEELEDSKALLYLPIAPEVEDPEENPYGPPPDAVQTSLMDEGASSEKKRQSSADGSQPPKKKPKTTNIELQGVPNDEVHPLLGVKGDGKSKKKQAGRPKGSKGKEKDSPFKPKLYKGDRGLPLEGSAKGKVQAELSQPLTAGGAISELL

T1 sequence (Q9BYW2 whole entry): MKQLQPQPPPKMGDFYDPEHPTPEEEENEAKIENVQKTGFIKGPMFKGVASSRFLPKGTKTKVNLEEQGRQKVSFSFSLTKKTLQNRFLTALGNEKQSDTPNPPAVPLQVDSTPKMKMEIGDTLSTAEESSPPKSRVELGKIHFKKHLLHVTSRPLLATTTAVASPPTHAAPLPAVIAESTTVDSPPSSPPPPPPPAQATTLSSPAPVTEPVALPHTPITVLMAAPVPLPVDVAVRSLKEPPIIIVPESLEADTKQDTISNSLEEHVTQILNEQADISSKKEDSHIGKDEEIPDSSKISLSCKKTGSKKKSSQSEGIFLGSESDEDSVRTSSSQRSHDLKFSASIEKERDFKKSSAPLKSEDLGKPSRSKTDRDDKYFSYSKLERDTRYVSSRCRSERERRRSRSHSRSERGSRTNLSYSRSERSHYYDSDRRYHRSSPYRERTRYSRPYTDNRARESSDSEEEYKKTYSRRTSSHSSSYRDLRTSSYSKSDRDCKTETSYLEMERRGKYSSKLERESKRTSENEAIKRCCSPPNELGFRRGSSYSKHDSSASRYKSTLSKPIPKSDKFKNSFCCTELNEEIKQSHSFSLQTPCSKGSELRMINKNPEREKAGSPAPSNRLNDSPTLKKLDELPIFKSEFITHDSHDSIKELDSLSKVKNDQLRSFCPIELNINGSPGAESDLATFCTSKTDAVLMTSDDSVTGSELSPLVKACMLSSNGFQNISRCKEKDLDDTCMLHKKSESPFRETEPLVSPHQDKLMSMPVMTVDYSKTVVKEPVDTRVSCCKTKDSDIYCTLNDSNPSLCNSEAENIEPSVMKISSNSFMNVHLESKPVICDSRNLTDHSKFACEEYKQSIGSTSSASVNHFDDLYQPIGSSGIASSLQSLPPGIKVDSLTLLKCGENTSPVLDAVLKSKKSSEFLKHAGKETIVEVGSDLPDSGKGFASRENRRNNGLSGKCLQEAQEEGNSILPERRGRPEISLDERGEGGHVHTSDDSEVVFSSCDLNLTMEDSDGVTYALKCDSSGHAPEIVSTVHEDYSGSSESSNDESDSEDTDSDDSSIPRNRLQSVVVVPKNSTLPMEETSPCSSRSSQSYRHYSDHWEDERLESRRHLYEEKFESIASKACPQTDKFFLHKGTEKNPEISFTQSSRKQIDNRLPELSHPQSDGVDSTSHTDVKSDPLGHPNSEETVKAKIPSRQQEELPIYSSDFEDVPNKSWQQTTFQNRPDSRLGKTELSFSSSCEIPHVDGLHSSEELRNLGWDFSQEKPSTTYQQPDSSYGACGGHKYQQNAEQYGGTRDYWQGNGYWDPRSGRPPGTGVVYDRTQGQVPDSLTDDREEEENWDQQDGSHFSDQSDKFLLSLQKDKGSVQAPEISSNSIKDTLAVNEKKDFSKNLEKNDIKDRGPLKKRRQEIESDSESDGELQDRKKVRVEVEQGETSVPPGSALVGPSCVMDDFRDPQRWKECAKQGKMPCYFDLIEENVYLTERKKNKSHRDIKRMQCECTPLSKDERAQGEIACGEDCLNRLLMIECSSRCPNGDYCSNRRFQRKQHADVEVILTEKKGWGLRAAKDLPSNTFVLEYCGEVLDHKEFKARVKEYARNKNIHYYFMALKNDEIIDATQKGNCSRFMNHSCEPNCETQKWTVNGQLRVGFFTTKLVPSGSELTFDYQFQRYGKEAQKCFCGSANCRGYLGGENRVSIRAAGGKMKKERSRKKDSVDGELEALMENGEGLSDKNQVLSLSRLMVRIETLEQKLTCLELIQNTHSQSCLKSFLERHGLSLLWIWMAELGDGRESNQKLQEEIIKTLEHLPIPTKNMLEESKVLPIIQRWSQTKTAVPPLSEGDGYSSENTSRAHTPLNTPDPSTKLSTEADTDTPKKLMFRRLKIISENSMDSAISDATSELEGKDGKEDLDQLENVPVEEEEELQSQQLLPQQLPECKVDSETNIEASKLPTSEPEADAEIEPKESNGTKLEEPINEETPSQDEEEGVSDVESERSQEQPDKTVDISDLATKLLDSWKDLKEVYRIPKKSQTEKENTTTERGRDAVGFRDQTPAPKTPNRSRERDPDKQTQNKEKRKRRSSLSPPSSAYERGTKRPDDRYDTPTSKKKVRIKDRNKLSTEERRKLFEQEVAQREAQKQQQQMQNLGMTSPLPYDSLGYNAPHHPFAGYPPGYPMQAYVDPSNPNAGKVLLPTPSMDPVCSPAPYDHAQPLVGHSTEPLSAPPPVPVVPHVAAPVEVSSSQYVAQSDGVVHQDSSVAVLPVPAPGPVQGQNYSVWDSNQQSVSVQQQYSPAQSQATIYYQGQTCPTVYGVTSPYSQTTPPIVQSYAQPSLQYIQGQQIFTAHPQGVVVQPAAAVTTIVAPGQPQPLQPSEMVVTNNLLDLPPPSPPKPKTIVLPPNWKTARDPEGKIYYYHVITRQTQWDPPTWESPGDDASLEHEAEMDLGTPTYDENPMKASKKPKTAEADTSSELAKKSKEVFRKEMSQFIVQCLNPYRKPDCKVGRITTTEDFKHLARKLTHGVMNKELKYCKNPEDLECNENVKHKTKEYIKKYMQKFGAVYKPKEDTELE
T2 sequence (Q9UMN6 2490-2715): as the sequence (Q9UMN6 2490-2715) above
T2 sequence (Q9UBL3 whole entry, further chain): as the sequence (Q9UBL3 whole entry, further chain) above
T2 sequence (Q9C005 whole entry, further chain): as the sequence (Q9C005 whole entry, further chain) above
T2 sequence (Q15291 whole entry, further chain): as the sequence (Q15291 whole entry, further chain) above

## NC(=O)NO [Hydroxyurea, hydroxyurea]
CD34+ cells; 10 μM
  Cell viability in CD34+ cells: 3.83 10*7 cells and 4.25 10*7 cells and 4.44 10*7 cells
CD34+ cells; 50 μM
  Cell viability in CD34+ cells: 1.8 10*7 cells and 1.47 10*7 cells and 1.48 10*7 cells
CD34+ cells
  cell viability: severe cytotoxicity

## Cc1c(C(=O)NC(CCC2CC2)C(=O)Nc2ccc(C#N)cc2)[nH]c2c1C(=O)CC(C)(C)C2 (centres unmarked) [RK-701]
PRMT5/MEP50
  IC50: > 100 µM
CD34+ cells; 0.01 μM
  Cell viability in CD34+ cells: 4.59 10*7 cells and 4.56 10*7 cells and 4.57 10*7 cells
CD34+ cells; 0.03 μM
  Cell viability in CD34+ cells: 4.39 10*7 cells and 4.41 10*7 cells and 4.97 10*7 cells
CD34+ cells; 0.1 μM
  Cell viability in CD34+ cells: 4.54 10*7 cells and 4.45 10*7 cells and 4.75 10*7 cells
CD34+ cells; 0.3 μM
  Cell viability in CD34+ cells: 4.11 10*7 cells and 4.64 10*7 cells and 4.5 10*7 cells
CD34+ cells; 1 μM
  Cell viability in CD34+ cells: 4.01 10*7 cells and 4.28 10*7 cells and 4.43 10*7 cells
CD34+ cells; 3 μM
  Cell viability in CD34+ cells: 4.31 10*7 cells and 4.53 10*7 cells and 4.47 10*7 cells
CD34+ cells
  cell viability: without affecting cell viability
MLL4 [1]
  IC50: > 100 µM
DNMT1
  IC50: > 100 µM
NSD2
  IC50: > 100 µM
mice; 12.5 mg/kg
  Number of alive mice: 3/3
mice; 25 mg/kg
  Number of alive mice: 3/3
mice; 50 mg/kg
  Number of alive mice: 3/3
mice; 100 mg/kg
  Number of alive mice: 3/3
mice; mice
  acute toxicity, survival: survived for two weeks
MLL4 [2]
  IC50: > 100 µM
[3]; Time 5, replicate values
  Metabolic stability, % remaining of RK-701: 67.6%
[3]; Time 10, replicate values
  Metabolic stability, % remaining of RK-701: 70.7% and 62.6%
[3]; Time 20, replicate values
  Metabolic stability, % remaining of RK-701: 60.6% and 44.6%
[3]; Time 30, replicate values
  Metabolic stability, % remaining of RK-701: 51.3% and 40.3%
[3]; Time 45, replicate values
  Metabolic stability, % remaining of RK-701: 47% and 30%
[3]; Time 60, replicate values
  Metabolic stability, % remaining of RK-701: 37.6% and 29.4%
[3]; dog, liver microsomes, Metabolic stability, % remaining of RK-701, Dog, Time 5, replicate values
  remaining at 5 min, 1 µM: 72.6%
[3]; dog, liver microsomes, Metabolic stability, % remaining of RK-701, Dog, Time 10, replicate values
  remaining at 10 min, 1 µM: 57%
[3]; dog, liver microsomes, Metabolic stability, % remaining of RK-701, Dog, Time 20, replicate values
  remaining at 20 min, 1 µM: 53.4%
[3]; dog, liver microsomes, Metabolic stability, % remaining of RK-701, Dog, Time 30, replicate values
  remaining at 30 min, 1 µM: 48.4%
[3]; dog, liver microsomes, Metabolic stability, % remaining of RK-701, Dog, Time 45, replicate values
  remaining at 45 min, 1 µM: 37.1%
[3]; dog, liver microsomes, Metabolic stability, % remaining of RK-701, Dog, Time 60, replicate values
  remaining at 60 min, 1 µM: 30.9%
[3]; dog, liver microsomes, Dug, read-out: Metabolic stability in liver microsomes CLint
  microsomal CLint at 1 μM: 28 µL/min/mg
HUDEP-2 cells; HUDEP-2
  FoldChange BCL11A: 1.17±0.09
  FoldChange BGLT3: 3.40±0.34
  FoldChange CHD3: 0.88±0.02
  FoldChange CHD4: 1.00±0.02
  FoldChange DNMT1: 0.97±0.02
  FoldChange GATA1: 0.97±0.04
  FoldChange GATAD2A: 0.96±0.03
  FoldChange GATAD2B: 1.02±0.04
  FoldChange HBA1: 1.15±0.13
  FoldChange HBA2: 1.19±0.04
  FoldChange HBBP1: 0.99±0.02
  FoldChange HBD: 1.01±0.03
  FoldChange HBE1: 4.70±0.71
  FoldChange HBG1: 2.51±0.58
  FoldChange HBG2: 3.33±0.28
  FoldChange HBM: 0.96±0.04
  FoldChange HBQ1: 1.09±0.05
  FoldChange HBZ: 0.31±0.08
  FoldChange HDAC1: 0.96±0.03
  FoldChange HDAC2: 0.95±0.03
  FoldChange IKZF1: 1.07±0.01
  FoldChange KLF1: 1.02±0.02
  FoldChange LDB1: 1.03±0.04
  FoldChange LIN28B: 0.91±0.07
  FoldChange LMO2: 1.28±0.04
  FoldChange MBD2: 1.03±0.02
  FoldChange MBD3: 0.96±0.02
  FoldChange MIR26B: 0.96±0.78
  FoldChange MTA1: 0.92±0.04
  FoldChange MTA2: 0.95±0.02
  FoldChange MYB: 0.91±0.01
  FoldChange NR2C1: 1.11±0.04
  FoldChange NR2C2: 0.97±0.04
  FoldChange RBBP4: 0.96±0.03
  FoldChange RBBP7: 0.98±0.03
  FoldChange SOX6: 1.70±0.07
  FoldChange TAL1: 1.12±0.04
  FoldChange TCF3: 0.92±0.02
  FoldChange ZBTB7A: 0.98±0.04
  FoldChange ZFPM1: 0.90±0.09
  number of genes transcriptionally upregulated: 204 genes
HUDEP-2 cells; HUDEP-2, 1 μM, 4 days
  FoldChange HBB: 1.13±0.05
  log2FoldChange CTD-2643I7.1 (BGLT3): 1.72
  log2FoldChange HBE1: 2.16
  log2FoldChange HBG1: 1.23
  log2FoldChange HBG2: 1.73
  log2FoldChange HBZ: -1.67
SETD2; SETD2, 1 μM SAM
  IC50: > 100 µM
SETD2; SETD2, RK-701 in duplicate
  IC50: > 100 µM

## Nc1ncnc2c1ncn2[C@@H]1O[C@H](CSCC[C@H](N)C(=O)O)[C@@H](O)[C@H]1O [SAH, S-(5'-Adenosyl)-L-homocysteine, reference compound]
MLL4 [4]
  IC50: 1.13 µM
MLL4 [5]
  IC50: 1.1 µM
SETD2; SETD2, 1 μM SAM
  IC50: 5.3 µM
SETD2; SETD2, RK-701 in duplicate
  IC50: 5.31 µM
